Consider one molecule from patent US20240350478A1, “APPLICATION OF BENZISOQUINOLINE DIKETONE COMPOUND IN TREATMENT OF TUMOR” (NANJING SHIJIANG MEDICINE TECHNOLOGY CO., LTD, priority 2021, published 2024).

pIC50: −log10 of the molar value. Counter-ions that a name gives are not always drawn.

Holding throughout (format): cell-based
The test system of assay [1] is NCI-H82 (human small cell lung cancer cell). The assay can be described thus: CellTiter-Glo cell viability, NCI-H82. The following applies: sensitive group, 3-4 days of culture, n=3. The procedure:
(§1) The inhibitory effect of pixantrone maleate on various tumor cell lines was detected using cell activity detection reagent. • Cell viability was detected using the Promega CellTiter-Glo kit, cell viability was determined by directly measuring intracellular ATP content. In the experiment, the IC50 value of pixantrone maleate on various tumor cell lines was determined. Each tumor cell was cultured separately in relevant medium (+p/s), and was incubated for 3 h, then the gradient diluted pixantrone maleate was added. After 3-4 days of culture, the relevant IC50 (50% inhibiting concentration) was measured (n=3). The name, source and culture conditions of each tumor cell line were as follows: Cell line NCI-H82 (ATCC, No. HTB-175) was cultured in 10% fetal bovine serum-containing RPMI1640 medium (+P/S).
In general terms: Cellular ATP, detected with luciferase, serves as a proxy for viable cell number.

In assay [2] the test system is G-401 (human renal carcinoma Wilms cell). The assay can be described thus: CellTiter-Glo cell viability, G-401. The settings on record: sensitive group, 3-4 days of culture, n=3. The procedure: as §1, with “G-401” for “NCI-H82”, “CRL-1441)” for “HTB-175)”, “McCoy's 5a” for “RPMI1640”
Assay [3] deals with MDA-MB-453 (breast cancer cell). The assay can be described thus: CellTiter-Glo cell viability, MDA-MB-453. The settings on record: Homo sapiens, sensitive group, 3-4 days of culture, n=3. The procedure:
as §1, with “MDA-MB-453” for “NCI-H82”, “HTB-131)” for “HTB-175)”, “Leibovitz's L-15” for “RPMI1640”

The subject of assay [4] is SW48 (human colon adenocarcinoma cell). Nature of the assay: CellTiter-Glo cell viability, SW48. The settings on record: sensitive group, 3-4 days of culture, n=3. The procedure: as §1, with “SW48” for “NCI-H82”, “CCL-231)” for “HTB-175)”, “Leibovitz's L-15” for “RPMI1640”
For assay [5], the system named is WSU-DLCL2 (human diffuse large B-cell lymphoma). Nature of the assay: CellTiter-Glo cell viability, WSU-DLCL2. The following applies: WSUDLCL2, sensitive group, 3-4 days of culture, n=3. The procedure: as §1, with “WSU-DLCL2 (DSMZ,” for “NCI-H82 (ATCC,”, “ACC-575)” for “HTB-175)”
In assay [6] the test system is CFPAC-1 (human pancreatic cancer cell). The assay can be described thus: CellTiter-Glo cell viability, CFPAC-1. The following applies: insensitive group, 3-4 days of culture, n=3. The procedure: as §1, with “CFPAC-1” for “NCI-H82”, “CRL-1918)” for “HTB-175)”, “IMDM” for “RPMI1640”
Assay [7] deals with 786-O (clear cell renal cell adenocarcinoma cell). Nature of the assay: CellTiter-Glo cell viability, 786-O. The settings on record: Homo sapiens, 786-0, insensitive group, 3-4 days of culture, n=3. The procedure: as §1, with “786-0” for “NCI-H82”, “CRL-1932)” for “HTB-175)”
In assay [8] the test system is GB-1 (human glioblastoma cell). The assay can be described thus: CellTiter-Glo cell viability, GB-1. The settings on record: insensitive group, 3-4 days of culture, n=3. The procedure: as §1, with “GB-1 (JCRB,” for “NCI-H82 (ATCC,”, “IFO50489)” for “HTB-175)”, “DMEM” for “RPMI1640”
Assay [9] concerns SF-126 (human glioblastoma multiforme cell). The assay can be described thus: CellTiter-Glo cell viability, SF-126. The settings on record: insensitive group, 3-4 days of culture, n=3. The procedure: as §1, with “SF126 (JCRB,” for “NCI-H82 (ATCC,”, “IFO50286)” for “HTB-175)”, “EMEM” for “RPMI1640”
Assay [10] deals with NCI-H82 (Con) cell. Nature of the assay: CellTiter-Glo cell viability, control NCI-H82 (Con) cell. The settings on record: Homo sapiens; control NCI-H82 cell transfected with empty virus vector; n=3. The text has this:
(§2) The NNMT protein-overexpressing NCI-H82 cell (NCI-H82 (ov-NNMT)) was obtained by inserting the NNMT gene into NCI-H82 cell using a viral vector. The control NCI-H82 cell (NCI-H82 (Con)) was obtained by transfecting NCI-H82 cell with empty virus vector without carrying NNMT gene. The expressing level of NNMT protein in control NCI-H82 cell (NCI-H82 (Con)) and NNMT protein-overexpressing NCI-H82 cell (NCI-H82 (ov-NNMT)) was detected using Western Blot assay (as shown in FIG. 7), it could be seen from FIG. 7 that the NNMT protein in NCI-H82 (ov-NNMT) cell was overexpressed compared with the expression level of NNMT protein in NCI-H82(Con) cell. The IC50 value of pixantrone maleate on control NCI-H82 cell (NCI-H82 (Con)) and NNMT protein-overexpressing NCI-H82 cell (NCI-H82 (ov-NNMT)) was determined using Promega CellTiter-Glo kit which detected cell viability by directly measuring intracellular ATP content (n=3), the experiment result was shown in Table 4 below: […]

Assay [11] has as its system NCI-H82 (ov-NNMT) cell. Nature of the assay: CellTiter-Glo cell viability, NNMT protein-overexpressing NCI-H82 (ov-NNMT) cell. The settings on record: Homo sapiens, n=3.
Description: as §2

Consider `NCCNc1ccc(NCCN)c2c1C(=O)c1ccncc1C2=O` [Pixantrone maleate, pixantrone maleate], for which the pIC50 was 6.13 in assay [1]; 6.54 in assay [2]; 6.07 in assay [3]; 7.70 in assay [4]; 7.70 in [5]; 4.93 in assay [6]. Besides, the negative logarithm of the IC50 (pIC50) in assay [7] was 4.67; in assay [8] it was 5.18; in assay [9], 5.27; in [10], 6.16; in assay [11] it was 5.71.

Broadly, the pIC50 is −log10 of the IC50, conventionally taken in molar units. Read a high pIC50 as a low IC50.
